Like-named read-outs stand apart in the source and are kept apart here.
Columns and labels:
[1] = test system: human intestinal epithelial cells (FHs 74 Int); assay: CCK-8 cell viability: alleviation of proliferative toxicity of anti-tumor agents on FHs 74 Int (Table 8-4); format: cell-based; settings: NO-NSAID 100 μM
Protocol: (§1) Experiments were conducted using various epithelial cells: Examples 47-51 used human immortalized keratinocytes (HaCaT) with corresponding results in Table 8-1; Examples 52-56 used human oral keratinocytes (HOK) with results in Table 8-2; Examples 57-61 used gastric epithelial cells (GES-1) with results in Table 8-3; Examples 62-66 used human intestinal epithelial cells (FHs 74 Int) with results in Table 8-4.
(§2) The cultured cells were digested the suspended, counted, and seed into a 96-well plate with 5,000-10,000 cells per well. The wells are divided into the following groups: blank control group, anti-tumor agent group, anti-tumor agent+NO-NSAID group, anti-tumor agent solvent group, NO-NSAID solvent control group. Wherein each well of each group contained a basic medium, and the final liquid volume contained in each well was about 100 μL. The grouping situation was as follows: • 1) Blank control group: no solution was added except normally replacing the medium; • 2) Anti-tumor agent group: added the anti-tumor agent solution (the final concentration was shown in Table 8-1 to Table 8-4, the solvent of the anti-tumor agent solution was DMSO); • 3) Anti-tumor agent+NO-NSAID group: added the anti-tumor agent solution and the NO-NSAID solution (the final concentrations of anti-tumor agent and NO-NSAID were shown in Table 8-1 to Table 8-4, and according to the solubility of NO-NSAID, the solvent of NO-NSAID solution was selected as ethanol or sterile water, and minor volume differences in each group were adjusted by added the corresponding solvent); • 4) Anti-tumor agent solvent group: an equal volume of DMSO as contained in the corresponding anti-tumor agent solution in Group 2) was added; • 5) NO-NSAID control group: the same volume and type of solvent (for example, ethanol or sterile water) corresponding to the NO-NSAID contained in group 3) was added.
(§3) The anti-tumor agent solvent group was not involved in data processing and was only used as a reference for evaluating experimental system error. The NO-NSAID solvent control group was used for data correction to eliminate the influence of the solvent on the results.
(§4) After culturing for 24-48 hours, the Cell Counting Kit-8 (CCK-8) detection kit (C0037, Shanghai Beyotime Biotechnology Co., Ltd., Beyotime Biotechnology) was used to determine the cell viability. This allows for the calculation of the proliferative toxicity of anti-tumor agent on cell and the mitigating effect of NO-NSAID on proliferative toxicity. The results were statistically analyzed and plotted using GraphPad Prism 6.0 software and t test.

[2] = test system: human oral keratinocytes (HOK); assay: CCK-8 cell viability: alleviation of proliferative toxicity of anti-tumor agents on HOK (Table 8-2); format: cell-based; settings: NO-NSAID 100 μM
Protocol: as §1, §2, §3, §4

[3] = test system: hand-foot syndrome induced by anti-tumor agents; assay: Prevention of hand-foot syndrome induced by anti-tumor agents in rats, NO-NSAID ointment on hind paws (Table 2-2); format: in vivo, SD rats; settings: Rattus norvegicus, topical, read-out: Control rate; for responders at 0.5 %: ointment 0.50% wt; for responders at 1 %: ointment 1% wt; for responders at 2.5 %: ointment 2.50% wt; for responders at 5 %: ointment 5% wt
Description: A rat animal model was constructed, and the anti-tumor agents shown in Table 2-2 were respectively administered to 8-week-old female SD rats by daily oral gavage. […] Therefore, rats serve as an excellent animal model for simulating side effects (such as hand-foot syndrome) caused by anti-tumor agents.
After the rats (about 200 g) were fed and adapted for one week, they were divided into a NO-NSAID group and a control group, with 10 rats in each group, and a gavage administration test was conducted. The various anti-tumor agents were dissolve in a mixed solution of Cremophor EL:ethanol=1:1. The anti-tumor agent solution were diluted with PBS to the required concentration (about 3 times with PBS solution) before gavage administration. After gavage, an ointment containing NO-NSAID was applied to the hind paws of the rats, while the control group was applied with a blank ointment. After application, the rats were placed in a fixed cylinder for 4 hours. After 4 hours, the rats were released and the residual ointment was wiped off with clean water, then the rats were returned to the cage. The gavage frequency of inhibitors was shown in Table 2-2, and NO-NSAID was only applied once a day. The gavage and application operations were repeated daily until the end of the experiment.
Table 2-2 lists the animal experimental combinations of various anti-tumor agents and NO-NSAID ointments, as well as the corresponding experimental results (wherein the value in the control rate column=the hand-foot syndrome incidence rate in the blank group−the hand-foot syndrome incidence rate in the treatment group).

[4] = test system: gastric epithelial cells (GES-1); assay: CCK-8 cell viability: alleviation of proliferative toxicity of anti-tumor agents on GES-1 (Table 8-3); format: cell-based, human; settings: NO-NSAID 100 μM
Protocol: as §1, §2, §3, §4

[5] = test system: hand-foot syndrome caused by anti-tumor agents; assay: Treatment of established hand-foot syndrome caused by anti-tumor agents in rats (Table 4); format: in vivo
Protocol: After the rats (about 200 g) were fed and adapted for one week, the rats were divided into groups of 10 rats for gavage administration experiment. The anti-tumor agent was dissolved in a mixed solution of Cremophor EL:ethanol=1:1, and diluted with PBS to the required concentration (diluted about 3 times with PBS solution) before gavage. […] Specific experimental procedures followed those outlined in the prevention experiment. […] Table 4 lists the animal experiments using various anti-tumor agents and NO-NSAID ointment, as well as the corresponding experimental results (where the value in the control rate column=the incidence rate of hand-foot syndrome in the blank group−the incidence rate of hand-foot syndrome in the treatment group).

[6] = 120 h, Sorafenib 80 mg/kg once a day, Days 5
[7] = 432 h, Cabozantinib 50 mg/kg once a day, Days 18
[8] = 432 h, Lenvatinib 100 mg/kg twice a day, Days 18
[9] = 432 h, Nintedanib 110 mg/kg once a day, Days 18
[10] = 432 h, Regorafenib 90 mg/kg once a day, Days 18

CC(C(=O)OCCCO[N+](=O)[O-])c1ccc(-c2ccccc2)c(F)c1 (centres unmarked) [Compound A1]
Response rate % (average) ([1]; Afatinib (10 μM)): 39%
Response rate % (average) ([1]; Cabozantinib (5 μM)): 27%
Response rate % (average) ([1]; Dabrafenib (10 μM)): −9%
Response rate % (average) ([1]; Everolimus (5 μM)): 19%
Response rate % (average) ([1]; Infigratinib (15 μM)): 0%
Response rate % (average) ([1]; Lapatinib (5 μM)): 35%
Response rate % (average) ([1]; Lenvatinib (10 μM)): 43%
Response rate % (average) ([1]; Olmutinib (10 μM)): 34%
Response rate % (average) ([1]; Regorafenib (5 μM)): 37%
Response rate % (average) ([1]; Selumetinib (5 μM)): 29%
Response rate % (average) ([1]; Sorafenib (5 μM)): 17%
Response rate % (average) ([1]; Sunitinib (5 μM)): 21%
Response rate % (average) ([2]; Afatinib (10 μM)): 41%
Response rate % (average) ([2]; Cabozantinib (5 μM)): 23%
Response rate % (average) ([2]; Dabrafenib (10 μM)): 2%
Response rate % (average) ([2]; Everolimus (5 μM)): −2%
Response rate % (average) ([2]; Infigratinib (15 μM)): 1%
Response rate % (average) ([2]; Lapatinib (5 μM)): 12%
Response rate % (average) ([2]; Lenvatinib (10 μM)): 38%
Response rate % (average) ([2]; Olmutinib (10 μM)): 40%
Response rate % (average) ([2]; Regorafenib (5 μM)): 22%
Response rate % (average) ([2]; Selumetinib (5 μM)): 15%
Response rate % (average) ([2]; Sorafenib (5 μM)): 22%
Response rate % (average) ([2]; Sunitinib (5 μM)): 9%
responders at 0.5 % [3, 6]: 42.9%
responders at 1 % [3, 6]: 42.9%
responders at 2.5 % [3, 6]: 60%
responders at 5 % [3, 6]: 83.3%
responders at 2.5 % ([3]; 360 h, Apatinib 105 mg/kg once a day, Days 15): 57.1%
responders at 2.5 % ([3]; 360 h, Encorafenib 80 mg/kg once a day, Days 15): 60%
responders at 2.5 % ([3]; 360 h, Lapatinib 120 mg/kg twice a day, Days 15): 33.3%
responders at 2.5 % ([3]; 360 h, Sunitinib 120 mg/kg once a day, Days 15): 57.1%
responders at 2.5 % ([3]; 384 h, Fruquintinib 40 mg/kg once a day, Days 16): 57.1%
responders at 2.5 % ([3]; 432 h, Anlotinib 20 mg/kg once a day, Days 18): 33.3%
responders at 2.5 % ([3]; 432 h, Axitinib 50 mg/kg once a day, Days 18): 60%
responders at 1 % [3, 7]: 40%
responders at 2.5 % [3, 7]: 33.3%
responders at 5 % [3, 7]: 66.7%
responders at 1 % [3, 8]: 28.6%
responders at 2.5 % [3, 8]: 57.1%
responders at 5 % [3, 8]: 57.1%
responders at 1 % [3, 9]: 33.3%
responders at 2.5 % [3, 9]: 66.7%
responders at 5 % [3, 9]: 66.7%
responders at 0.5 % [3, 10]: 33.3%
responders at 1 % [3, 10]: 50%
responders at 2.5 % [3, 10]: 42.9%
responders at 5 % [3, 10]: 80%
responders at 2.5 % ([3]; 480 h, Erdafitinib 45 mg/kg once a day, Days 20): 42.9%
responders at 2.5 % ([3]; 480 h, Olmutinib 100 mg/kg once a day, Days 20): 50%
Response rate % (average) ([4]; Afatinib (10 μM)): 24%
Response rate % (average) ([4]; Cabozantinib (5 μM)): 28%
Response rate % (average) ([4]; Dabrafenib (10 μM)): 6%
Response rate % (average) ([4]; Everolimus (5 μM)): 24%
Response rate % (average) ([4]; Infigratinib (15 μM)): 23%
Response rate % (average) ([4]; Lapatinib (5 μM)): 31%
Response rate % (average) ([4]; Lenvatinib (10 μM)): 41%
Response rate % (average) ([4]; Olmutinib (10 μM)): 38%
Response rate % (average) ([4]; Regorafenib (5 μM)): 34%
Response rate % (average) ([4]; Selumetinib (5 μM)): 18%
Response rate % (average) ([4]; Sorafenib (5 μM)): 15%
Response rate % (average) ([4]; Sunitinib (5 μM)): −2%
Response rate ([5]; Apatinib 105 mg/kg once every two days, ointment 2.50% wt, Days 7): 28.57%
Response rate ([5]; Cabozantinib 50 mg/kg once every two days, ointment 1% wt, Days 11): 28.57%
Response rate ([5]; Encorafenib 80 mg/kg once every two days, ointment 2.50% wt, Days 9): 14.29%
Response rate ([5]; Fruquintinib 40 mg/kg once every two days, ointment 2.50% wt, Days 8): 42.86%
Response rate ([5]; Lenvatinib 65 mg/kg once a day, ointment 2.50% wt, Days 9): 40.00%
Response rate ([5]; Olmutinib 100 mg/kg once every two days, ointment 2.50% wt, Days 12): 42.86%
Response rate ([5]; Regorafenib 90 mg/kg once every two days, ointment 0.50% wt, Days 8): 14.29%
Response rate ([5]; Sorafenib 80 mg/kg once every two days, ointment 2.50% wt, Days 5): 28.57%
Response rate ([5]; Sunitinib 120 mg/kg once every two days, ointment 2.50% wt, Days 9): 28.57%
